Measured values as given in patent publication US20010056085A1, “Methods of using vesicant drug formulations” (priority 1996, published 2001).
Read-outs that look alike come from different tables or passages of the source.

Assay: Half-life of ADR destruction by UVA light in the presence of test compounds (decrease in absorbance at 480 nm)
Assay type: physicochemical
Settings: for Half-Life of ADR Destruction, 100 μM Test Compound: 100 μM test compound alone
[1] = UVA light, 100 μM test compound with 0.5 μM riboflavin

Compound | Half-Life of ADR Destruction, 100 μM Test Compound and 0.5 μM Riboflavin [1] [min] | Half-Life of ADR Destruction, 100 μM Test Compound (UVA light) [min] | Half-Life of ADR Destruction, 100 μM Test Compound and 0.5 μM Riboflavin [min]
COc1cc(OC)c(OC)cc1C=CC(=O)O [2,4,5-Trimethoxy Cinnamic Acid] | 18.8 | – | –
CC(C(=O)O)c1ccc(C(=O)c2ccccc2)s1 (stereo not shown) [Tiaprofenic Acid, 2-Benzoyl-5-(x-methyl)-thiopheneacetic acid, reference compound] | 3.24 | 3.20 | –
Cc1ccc2[nH]c(C)cc2c1 [2,5-Dimethyl Indole] | 5.79 | 17.7 | –
Cc1[nH]c2ccccc2c1CC(=O)O [2-Methylindole-3-acetic acid] | 4.57 ± 2.92 | – | –
COc1cc(OC)c2ccc(=O)oc2c1 [5,7-Dimethoxycoumarin] | 23.2 | 27.4 | –
O=C(O)CCCc1c[nH]c2ccccc12 [3-Indolebutyric acid] | 10.0 | – | –
CC(C(=O)O)c1ccc(N2Cc3ccccc3C2=O)cc1 (stereo not drawn) [Indoprofen, 4-(1-Isoindolinone)-α-Methyl Phenylacetic Acid, reference compound] | 25.1 | 75.3 | –
Nc1ccc(C(=O)O)cc1 [4-Amino Benzoic Acid] | 20.6 ± 9.7 | – | –
NCC(O)c1ccc(O)cc1 (stereo not drawn) [4-Hydroxy-β-hydroxy Phenethylamine] | 50.2 | – | –
Dimethyl-2,3-indolecarboxylic acid | 12.0 | – | –
O=C(O)c1cccc2c1-c1ccccc1C2=O [9-Fluorenone-4-carboxylic acid] | 43.0 | 50.2 | –
c1ccc2occc2c1 [Benzofuran] | 75.3 | – | –
Nc1ccc(N)c(S(=O)(=O)O)c1 [2,5-Diamino Benzene sulfonic acid] | 27.4 | – | –
Cc1ccc(CO)cc1N [3-Amino-4-Methyl Benzyl Alcohol] | 23.2 | – | –
COc1ccc2cc[nH]c2c1 [6-Methoxy Indole] | 6.27 | 33.5 | –
CC(O)c1ccc2ccccc2c1 (stereo not drawn) [α-Methyl-2-naphthalenemethanol] | 33.5 | 43.0 | –
Cn1cccc1 [1-Methyl Pyrrole] | 27.4 | – | –
CCc1ccc[nH]1 [2-Ethyl Pyrrole] | 10.0 | – | –
COc1cc2ccc(=O)oc2cc1OC [6,7-Dimethoxycoumarin] | – | 21.5 | –
O=C(O)c1cc2ccccc2[nH]1 [Indole-2-carboxylic acid] | 9.12 | – | –
Cc1cc(NC(=O)C2=C(O)c3ccccc3S(=O)(=O)N2C)no1 [Isoxicam, reference compound] | – | 75.3 | –
Cc1ccc(N)c(CO)c1 [2-Amino-5-Methyl Benzyl Alcohol] | 24.5 ± 8.0 | – | –
NC(C(=O)O)c1ccccc1 (stereo not shown) [Phenylglycine] | 67.8 ± 10.7 | – | –
COC(=O)c1ccc(N)cc1 [Methyl-4-aminobenzoate] | 10.8 | – | –
NS(=O)(=O)c1ccccc1 [Benzenesulfonamide] | – | – | 50.2
CC(=O)c1ccc2c(c1)OCCO2 [1,4-Benzodioxane-6-yl methyl ketone] | 33.4 | 43.0 | –
